{"source": "patent US6569894B1", "about": "“Arylalkylbenzofuran derivatives as melatonergic agents” (Bristol-Myers Squibb Company, priority 2001, dated 2003)", "key": {"ML1a receptor": {"molecular_target": "T1, ML1a receptor (Homo sapiens, UniProt P48039)", "T1 construct": "expressed in transfected cells; pcDNA3)", "T1 sequence (P48039 whole entry)": "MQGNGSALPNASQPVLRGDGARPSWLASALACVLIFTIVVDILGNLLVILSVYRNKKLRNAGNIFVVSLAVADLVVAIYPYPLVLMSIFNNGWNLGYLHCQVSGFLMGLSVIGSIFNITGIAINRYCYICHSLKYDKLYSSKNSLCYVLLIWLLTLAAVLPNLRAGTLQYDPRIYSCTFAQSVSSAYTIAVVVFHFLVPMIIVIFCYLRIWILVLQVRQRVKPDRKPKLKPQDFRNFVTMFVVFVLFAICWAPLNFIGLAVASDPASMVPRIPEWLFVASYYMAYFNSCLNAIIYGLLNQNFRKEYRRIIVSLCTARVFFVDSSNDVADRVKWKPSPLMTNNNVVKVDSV", "assay": "Melatonergic receptor binding activity, 2-[125I]-iodomelatonin, ML1a", "details": "membrane homogenates of NIH-3T3 cells, 37° C. for 1 hour", "procedure": "(§1) Melatonergic Receptor Binding Activity\n(§2) (a) TME=50 mM Tris buffer containing 12.5 mM MgCl2, and 2 mM EDTA, pH 7.4 at 37° C., with concentrated HCl.\n(§3) (b) Wash buffer: 20 mM Tris base containing 2 mM MgCl2, pH 7.4 at room temperature.\n(§4) (c) 10^−4 M melatonin (10^−5 M final concentration).\n(§5) (d) 2-[^125I]-iodomelatonin, […] final concentration.\n2. Membrane Homogenates: The melatonin ML1α receptor cDNA was subcloned into pcDNA3 and introduced into NIH-3T3 cells using Lipofectamine. Transformed NIH-3T3 cells resistant to geneticin (G-418) were isolated, and single colonies expressing high levels of 2-[^125I]-iodomelatonin binding were isolated. Cells are maintained in DMEM supplemented with 10% calf serum and G-418 (0.5 g/liter). Cells are grown to confluency in T-175 flasks, scraped using Hank's balanced salt solution, and frozen at −80° C. For preparing membrane homogenates, pellets are thawed on ice, and re-suspended in TME buffer in the presence of 10 μg/ml aprotinin and leupeptin, and 100 μM phenylmethylsulfonylfluoride. The cells were then homogenized using a dounce homogenizer, and centrifuged. The resulting pellet was re-suspended with dounce homogenizer in TME (supplemented with the above protease inhibitors) and frozen. On the day of assay, a small aliquot was thawed on ice and re-suspended in the ice cold TME (1:50-1:100 v/v) and held on ice until assayed.\n(§6) 3. Incubation: 37° C. for 1 hour. Reaction is terminated by filtration. Filters were washed 3 times.\n(§7) The compounds of the present invention have affinity for receptors of the endogenous pineal hormone, melatonin, as determined in a receptor binding assays described above in Tables I to V for the ML1a and ML1b (human) receptors. Melatonin is involved in the regulation of a variety of biological rhythms and exerts its biological effects via interaction with specific receptors. There is evidence that administration of melatonin agonists are of clinical utility in the treatment of various conditions regulated by melatonin activity. Such conditions include depression, jet-lag, work-shift syndrome, sleep disorders, glaucoma, some disorders associated with reproduction, cancer benign prostatic hyperplasia, immune disorders and neuroendocrine disorders."}, "ML1b receptor": {"molecular_target": "T2, ML1b receptor (Homo sapiens, UniProt P49286)", "T2 construct": "expressed in transfected cells", "T2 sequence (P49286 1-362)": "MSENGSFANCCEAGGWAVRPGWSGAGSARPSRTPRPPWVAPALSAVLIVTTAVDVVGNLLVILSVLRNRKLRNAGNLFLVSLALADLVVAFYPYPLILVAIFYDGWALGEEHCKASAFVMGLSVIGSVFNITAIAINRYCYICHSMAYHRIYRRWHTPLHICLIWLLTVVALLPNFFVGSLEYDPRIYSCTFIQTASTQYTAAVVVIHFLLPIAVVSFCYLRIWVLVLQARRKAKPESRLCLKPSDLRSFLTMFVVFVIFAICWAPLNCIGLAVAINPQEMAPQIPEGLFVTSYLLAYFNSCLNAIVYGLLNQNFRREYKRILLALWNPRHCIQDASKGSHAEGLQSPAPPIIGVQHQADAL", "assay": "Melatonergic receptor binding activity, 2-[125I]-iodomelatonin, ML1b", "details": "37° C. for 1 hour", "procedure": "as §1, §2, §3, §4, §5, §6, §7"}}}
{"compound": "CCNC(=O)NCC1CC1c1c(Cl)ccc2c1CC(CCCCc1ccccc1)O2", "note": "[Example 48, N-({2-[2R)-5-Chloro-2-(4-phenylbutyl)(2,3-dihydrobenzo[b]furan-4-yl)]-(1R,2R)cyclopropyl}methyl)(ethylamino)carboxamide]", "values": [{"measurement": "IC50", "setting": "ML1a receptor; Table V", "value": "10 to 250", "unit": "nM"}, {"measurement": "IC50", "setting": "ML1b receptor; Table V", "value": "10 to 250", "unit": "nM"}, {"measurement": "melting point", "value": "126 to 128", "unit": "°C"}]}
{"compound": "CC(=O)NC[C@@H]1C[C@H]1c1cccc2c1C[C@@H](CCCCc1ccccc1)O2", "note": "[Example 42, N-({2-[(2R)-2-(4-Phenylbutyl)(2,3-dihydrobenzo[b]furan-4-yl)]-(1R,2R)cyclopropyl}methyl)acetamide]", "values": [{"measurement": "IC50", "setting": "ML1a receptor; Table V", "value": "< 10", "unit": "nM"}, {"measurement": "IC50", "setting": "ML1b receptor; Table V", "value": "< 10", "unit": "nM"}, {"measurement": "melting point", "value": "65 to 66", "unit": "°C"}]}
{"compound": "CCNC(=O)NC[C@@H]1C[C@H]1c1cccc2c1C[C@@H](CCCCc1ccccc1)O2", "note": "[Example 47, N-({2-[(2R)-2-(4-Phenylbutyl)(2,3-dihydrobenzo[b]furan-4-yl)]-(1R,2R)cyclopropyl}methyl)(ethylamino)carboxamide]", "values": [{"measurement": "IC50", "setting": "ML1a receptor; Table V", "value": "10 to 250", "unit": "nM"}, {"measurement": "IC50", "setting": "ML1b receptor; Table V", "value": "10 to 250", "unit": "nM"}, {"measurement": "melting point", "value": "69 to 70", "unit": "°C"}]}
{"compound": "O=C(NCCCc1cccc2c1C[C@H](CCCCc1ccccc1)O2)C1CC1", "note": "(stereo in doubt) [Example 5, N-[3-[2-(4-Phenylbutyl)-2,3-dihydrobenzofuran-4-yl]propyl]cyclopropanecarboxamide]", "values": [{"measurement": "IC50", "setting": "ML1a receptor; Table I", "value": "< 10", "unit": "nM"}, {"measurement": "IC50", "setting": "ML1b receptor; Table I", "value": "10 to 250", "unit": "nM"}, {"measurement": "melting point", "value": "63 to 64", "unit": "°C"}]}
{"compound": "O=C(NC[C@@H]1C[C@H]1c1cccc2c1C[C@@H](CCCCc1ccccc1)O2)C1CC1", "note": "[Example 46, N-({2-[(2R)-2-(4-Phenylbutyl)(2,3-dihydrobenzo[b]furan-4-yl)]-(1R,2R)cyclopropyl}methyl)cyclopropylcarboxamide]", "values": [{"measurement": "IC50", "setting": "ML1a receptor; Table V", "value": "< 10", "unit": "nM"}, {"measurement": "IC50", "setting": "ML1b receptor; Table V", "value": "10 to 250", "unit": "nM"}]}
{"compound": "CC(C)C(=O)NC[C@@H]1C[C@H]1c1cccc2oc(CCCCc3ccc(F)cc3)cc12", "note": "(stereo in doubt) [Example 39, N-[((1R,2R)-2-{2-[4-(4-Fluorophenyl)butyl]benzo[b]furan-4-yl}-cyclopropyl)methyl]-2-methylpropanamide]", "values": [{"measurement": "IC50", "setting": "ML1a receptor; Table IV", "value": "10 to 250", "unit": "nM"}, {"measurement": "IC50", "setting": "ML1b receptor; Table IV", "value": "10 to 250", "unit": "nM"}]}
{"compound": "CC(=O)NCCCc1cccc2c1C[C@H](CCCCc1ccccc1)O2", "note": "(stereo in doubt) [Example 1, N-[3-[2-(4-Phenylbutyl)-2,3-dihydrobenzofuran-4-yl]propyl]acetamide]", "values": [{"measurement": "IC50", "setting": "ML1a receptor; Table I", "value": "< 10", "unit": "nM"}, {"measurement": "IC50", "setting": "ML1b receptor; Table I", "value": "10 to 250", "unit": "nM"}, {"measurement": "melting point", "value": "40 to 41", "unit": "°C"}]}
{"compound": "O=C(NCCCc1cccc2oc(CCCCc3ccc(C(F)(F)F)cc3)cc12)C1CC1", "note": "[Example 13, N-[3-[2-[4-(4-Trifluoromethylphenyl)butyl]benzofuran-4-yl]propyl]-cyclopropane Carboxamide]", "values": [{"measurement": "IC50", "setting": "ML1a receptor; Table III", "value": "> 250", "unit": "nM"}, {"measurement": "IC50", "setting": "ML1b receptor; Table III", "value": "> 250", "unit": "nM"}]}
{"compound": "CCCC(=O)NC[C@@H]1C[C@H]1c1cccc2oc(CCCCc3ccc(F)cc3)cc12", "note": "(stereo in doubt) [Example 38, N-[((1R,2R)-2-{2-[4-(4-Fluorophenyl)butyl]benzo[b]furan-4-yl}-cyclopropyl)methyl]butanamide]", "values": [{"measurement": "IC50", "setting": "ML1a receptor; Table IV", "value": "10 to 250", "unit": "nM"}, {"measurement": "IC50", "setting": "ML1b receptor; Table IV", "value": "10 to 250", "unit": "nM"}]}
{"compound": "N-3-(2-(3-Phenylprop-1-yl)benzofuran-3-yl)prop-1-yl Propanamide [Example 20]", "values": [{"measurement": "IC50", "setting": "ML1a receptor; Table III", "value": "10 to 250", "unit": "nM"}, {"measurement": "IC50", "setting": "ML1b receptor; Table III", "value": "> 250", "unit": "nM"}]}
{"compound": "CC(C)C(=O)NC[C@H]1C[C@@H]1c1cccc2oc(CCCCc3ccccc3)cc12", "note": "(racemic) [Example 33, N-({(1R,2R)-2-[2-(4-Phenylbutyl)benzo[b]furan-4-yl]-cyclopropyl}methyl)-2-methylpropanamide]", "values": [{"measurement": "IC50", "setting": "ML1a receptor; Table IV", "value": "10 to 250", "unit": "nM"}, {"measurement": "IC50", "setting": "ML1b receptor; Table IV", "value": "10 to 250", "unit": "nM"}]}
{"compound": "N-3-(2-(2-Phenyleth-1-yl)benzofuran-3-yl)prop-1-yl Butyramide [Example 25]", "values": [{"measurement": "IC50", "setting": "ML1a receptor; Table III", "value": "10 to 250", "unit": "nM"}, {"measurement": "IC50", "setting": "ML1b receptor; Table III", "value": "10 to 250", "unit": "nM"}]}
{"compound": "CC(=O)NCCCc1cccc2oc(CCCCc3ccc(C(F)(F)F)cc3)cc12", "note": "[Example 15, N-[3-[2-[4-(4-Trifluoromethylphenyl)butyl]benzofuran-4-yl]propyl]-acetamide]", "values": [{"measurement": "IC50", "setting": "ML1a receptor; Table III", "value": "10 to 250", "unit": "nM"}, {"measurement": "IC50", "setting": "ML1b receptor; Table III", "value": "> 250", "unit": "nM"}]}
{"compound": "N-3-(2-(2-Phenyleth-1-yl)benzofuran-3-yl)prop-1-yl-cyclopropanecarboxamide [Example 26]", "values": [{"measurement": "IC50", "setting": "ML1a receptor; Table III", "value": "10 to 250", "unit": "nM"}, {"measurement": "IC50", "setting": "ML1b receptor; Table III", "value": "10 to 250", "unit": "nM"}]}
{"compound": "O=C(NC[C@H]1C[C@@H]1c1cccc2oc(CCCCc3ccccc3)cc12)C1CC1", "note": "(racemic) [Example 34, N-({(1R,2R)-2-[2-(4-Phenylbutyl)benzo[b]furan-4-yl]-cyclopropyl}methyl)cyclopropylcarboxamide]", "values": [{"measurement": "IC50", "setting": "ML1a receptor; Table IV", "value": "10 to 250", "unit": "nM"}, {"measurement": "IC50", "setting": "ML1b receptor; Table IV", "value": "10 to 250", "unit": "nM"}]}
{"compound": "O=C(NCCCc1cccc2oc(CCCCc3ccccc3)cc12)C1CC1", "note": "[Example 7, N-[3-[2-(4-Phenylbutyl)benzofuran-4-yl]propyl]cyclopropanecarboxamide]", "values": [{"measurement": "IC50", "setting": "ML1a receptor; Table II", "value": "10 to 250", "unit": "nM"}, {"measurement": "IC50", "setting": "ML1b receptor; Table II", "value": "10 to 250", "unit": "nM"}, {"measurement": "melting point", "value": "70 to 71", "unit": "°C"}]}
{"compound": "CC(=O)NC[C@H]1C[C@@H]1c1cccc2oc(CCCCc3ccccc3)cc12", "note": "(racemic) [Example 28, N-({(1R,2R)-2-[2-(4-Phenylbutyl)benzo[b]furan-4-yl]-cyclopropyl}methyl)acetamide]", "values": [{"measurement": "IC50", "setting": "ML1a receptor; Table IV", "value": "< 10", "unit": "nM"}, {"measurement": "IC50", "setting": "ML1b receptor; Table IV", "value": "10 to 250", "unit": "nM"}]}
{"compound": "CCC(=O)NCCCc1cccc2oc(CCCCc3ccc(C(F)(F)F)cc3)cc12", "note": "[Example 16, N-[3-[2-[4-(4-Trifluoromethylphenyl)butyl]benzofuran-4-yl]propyl]-propionamide]", "values": [{"measurement": "IC50", "setting": "ML1a receptor; Table III", "value": "10 to 250", "unit": "nM"}, {"measurement": "IC50", "setting": "ML1b receptor; Table III", "value": "10 to 250", "unit": "nM"}]}
